{"source": "patent US6372937B1", "about": "“Enhanced catalyzed reporter deposition” (priority 1998, dated 2002)", "key": {"HRP [1]": {"target": "T1, HRP (Armoracia rusticana, UniProt P00433)", "T1 sequence (P00433 31-338)": "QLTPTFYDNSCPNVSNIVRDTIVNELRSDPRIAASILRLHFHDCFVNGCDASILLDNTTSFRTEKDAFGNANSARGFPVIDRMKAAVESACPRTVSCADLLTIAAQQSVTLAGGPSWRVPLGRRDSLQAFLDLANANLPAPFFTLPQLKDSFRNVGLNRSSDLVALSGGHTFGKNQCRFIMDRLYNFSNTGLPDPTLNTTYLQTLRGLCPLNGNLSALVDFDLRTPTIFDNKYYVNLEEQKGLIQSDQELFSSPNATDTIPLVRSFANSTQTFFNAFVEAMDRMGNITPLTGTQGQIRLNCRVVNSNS", "assay": "Enhanced CARD detection using cyanine 3 tyramide on human prostate tissue slides", "type": "biochemical, horseradish", "description": "Human prostate tissue slides (Dako Corp., Carpinteria, Calif.) were deparaffinized and blocked for thirty minutes with TNB Blocking Buffer (TSA Direct Cyanine 3 kit, NEN Life Science Products, Boston, Mass.). Rabbit anti-human prostate specific antigen (Dako) diluted 1/40,000 in TNB buffer was incubated for one hour at room temperature. The slides were washed in TNT buffer (TSA Direct Cyanine 3 kit) and then incubated with an anti-rabbit IgG-HRP conjugate (Roche Molecular Biochemicals, Indianapolis, Ind.) diluted 1/1000 in TNB buffer for one hour at room temperature. Standard CARD detection was performed using the TSA Direct Cyanine 3 kit. Organic enhanced CARD detection was performed using the TSA Direct Cyanine 3 kit and adding p-iodophenyl boronic acid (structure 2) at a 20:1 (w/w) ratio to the cyanine 3 tyramide reagent. Organic and salt enhanced CARD detection was performed using the TSA Direct Cyanine 3 kit, adding p-iodophenyl boronic acid (structure 2) at a 20:1 (w/w) ratio to the cyanine 3 tyramide reagent and adding NaCl to the diluent to a final concentration of 2M. The slides were washed in TNT buffer, mounted with mounting medium and a coverslip."}, "HRP [2]": {"target": "T1, HRP", "assay": "Enhanced CARD detection using fluorescein tyramide on human prostate tissue slides", "type": "biochemical, horseradish", "description": "Human prostate tissue slides (Dako) were deparaffinized and blocked for thirty minutes with TNB Blocking Buffer (TSA Direct Green kit, NEN Life Science Products). Rabbit anti-human prostate specific antigen (Dako) diluted 1/10,000 in TNB buffer was incubated for one hour at room temperature. The slides were washed in TNT buffer (TSA Direct Green kit) and then incubated with an anti-rabbit IgG-HRP conjugate (Roche) diluted 1/1000 in TNB buffer for one hour at room temperature. Standard CARD detection was performed using the TSA Direct Green kit, which utilizes fluorescein tyramide. Organic enhanced CARD detection was performed using the TSA Direct Green kit and adding p-iodophenyl boronic acid (structure 2) at a 20:1 (w/w) ratio to the fluorescein tyramide reagent. Organic and salt enhanced CARD detection was performed using the TSA Direct Green kit, adding p-iodophenyl boronic acid (structure 2) at a 20:1 (w/w) ratio to the fluorescein tyramide reagent and adding NaCl to the diluent to a final concentration of 2M. The slides were washed in TNT buffer, mounted with mounting medium and a coverslip."}, "HRP [3]": {"target": "T1, HRP", "details": "cited from earlier work"}, "HRP [4]": {"target": "T1, HRP", "assay": "Enhanced CARD detection using biotinyl tyramide on human prostate tissue slides", "type": "biochemical, horseradish", "details": "enhancer at 20:1 (w/w) plus NaCl 2M, Streptavidin-HRP/diaminobenzidine readout", "description": "Human prostate tissue slides (Dako) were deparaffinized and blocked for thirty minutes with TNB Blocking Buffer (TSA Indirect kit, NEN Life Science Products). Rabbit anti-human prostate specific antigen (Dako) diluted 1/100,000 in TNB buffer was incubated for one hour at room temperature. The slides were washed in TNT buffer (TSA Indirect kit) and then incubated with an anti-rabbit IgG-HRP conjugate (Roche) diluted 1/1000 in TNB buffer for one hour at room temperature.\nStandard CARD detection was performed using the TSA Indirect kit, which utilizes biotinyl tyramide. Organic and salt enhanced CARD detection was performed using the TSA Indirect kit, adding N-(5-hydroxypentyl)-3-(p-hydroxyphcnyl)propionamide (structure 1) at a 20:1 (w/w) ratio to the biotinyl tyramide reagent and adding NaCl to the diluent to a final concentration of 2M. The slides were washed in TNT buffer, and Streptavidin-HRP (TSA Indirect kit) diluted 1/100 in TNB buffer was incubated for thirty minutes at room temperature. The slides were washed in TNT buffer and diaminobenzidine (NEN Life Science Products) was added and incubated for three minutes at room temperature. The slides were washed with water, and counterstained with Hematoxylin. The slides were then washed with water, phosphate buffered saline, water, dehydrated and mounted."}, "[5]": {"details": "enhancer at 20:1 (w/w) ratio to tyramide reagent"}, "[6]": {"details": "NaCl 2M in diluent added to p-iodophenyl boronic acid 20:1 (w/w)"}}}
{"smiles": "OB(O)c1ccc(I)cc1", "note": "[p-iodophenyl boronic acid]", "values": [{"measurement": "organic enhanced vs standard CARD detection (FIG. 1A compared to FIG. 1B)", "setting": "HRP [1]; [5]", "result": "very dramatic difference"}, {"measurement": "organic enhanced vs standard CARD detection (FIG. 2A compared to FIG. 2B)", "setting": "HRP [2]; [5]", "result": "significant difference"}]}
{"smiles": "c1c[nH]cn1", "note": "[imidazole]", "values": [{"measurement": "effect on the oxidation of 4-chloro-1-naphthol", "setting": "HRP [3]; substrate 4-chloro-1-naphthol", "result": "no effect"}, {"measurement": "enhancement of the oxidation of p-phenylenediamine-pyrocatechol", "setting": "HRP [3]; substrate combination p-phenylenediamine-pyrocatechol", "result": "two fold"}, {"measurement": "enhancement of the oxidation of diaminobenzidine", "setting": "HRP [3]; substrate diaminobenzidine", "result": "approximately four fold"}]}
{"smiles": "[Cl-].[Na+]", "note": "[NaCl]", "values": [{"measurement": "addition of salt to the organic enhanced CARD detection (FIG. 1B compared to FIG. 1C)", "setting": "HRP [1]; [6]", "result": "significant improvement"}, {"measurement": "addition of salt to the organic enhanced CARD detection (FIG. 2B compared to FIG. 2C)", "setting": "HRP [2]; [6]", "result": "very dramatic improvement"}]}
{"smiles": "O=C(CCc1ccc(O)cc1)NCCCCCO", "note": "[N-(5-hydroxypentyl)-3-(p-hydroxyphcnyl)propionamide]", "values": [{"measurement": "organic and salt enhanced vs standard CARD detection (FIG. 3A compared to FIG. 3B)", "setting": "HRP [4]", "result": "striking difference"}]}
